In patent US20230111310A1, “CARBOXYLIC ACID DERIVATIVE-SUBSTITUTED IMINO ARYL COMPOUND, PREPARATION METHOD THEREFOR, HERBICIDAL COMPOSITION AND USE THEREOF” (Qingdao Kingagroot Chemical Compound Co., Ltd., priority 2020, published 2023):

Assays:
Assay in all cases: Weeding effect in post-emergence stage
Format in all cases: in vivo
Abutilon theophrasti = details: Dose 15 g/ha; for Weeding effect in post-emergence stage, Abutilon theophrasti: level of fresh weight growth control rate
Method in brief: (§1)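 Seeds are sown in soil-filled pots under 0.5-2 cm soil and grown 2 weeks in greenhouse. Plants at 2-3 leaves are sprayed with compound (acetone, Tween 80, 1.5 liter/ha methyl oleate EC, water) at 7.5 to 500 g/ha. Damage is rated 3 weeks later, averaging three repeats.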

Alopecurus japonicus = details: Dose 15 g/ha; for Weeding effect in post-emergence stage, Alopecurus japonicus: level of fresh weight growth control rate
Method in brief: as §1

Digitaria sanguinalis = details: Dose 15 g/ha; for Weeding effect in post-emergence stage, Digitaria sanguinalis: level of fresh weight growth control rate
Method in brief: as §1

Eleusine indica = details: Dose 15 g/ha; for Weeding effect in post-emergence stage, Eleusine indica: level of fresh weight growth control rate
Method in brief: as §1

Setaria viridis = details: Dose 15 g/ha; for Weeding effect in post-emergence stage, Setaria viridis: level of fresh weight growth control rate
Method in brief: as §1

Echinochloa crusgalli = details: Dose 15 g/ha; for Weeding effect in post-emergence stage, Echinochloa crusgalli: level of fresh weight growth control rate
Method in brief: as §1

[1] = fresh weight control rate level

SMILES	Weeding effect in post-emergence stage, Abutilon theophrasti (Abutilon theophrasti)	Weeding effect in post-emergence stage, Alopecurus japonicus (Alopecurus japonicus)	Weeding effect in post-emergence stage, Digitaria sanguinalis (Digitaria sanguinalis)	Weeding effect in post-emergence stage, Eleusine indica (Eleusine indica)	Weeding effect in post-emergence stage, Setaria viridis (Setaria viridis)	Weeding effect in post-emergence stage, Echinochloa crusgalli (Echinochloa crusgalli)	Weeding effect in post-emergence stage, Abutilon theophrasti (level) (Abutilon theophrasti; [1])	Weeding effect in post-emergence stage, Alopecurus japonicus (level) (Alopecurus japonicus; [1])	Weeding effect in post-emergence stage, Digitaria sanguinalis (level) (Digitaria sanguinalis; [1])	Weeding effect in post-emergence stage, Eleusine indica (level) (Eleusine indica; [1])	Weeding effect in post-emergence stage, Setaria viridis (level) (Setaria viridis; [1])	Weeding effect in post-emergence stage, Echinochloa crusgalli (level) (Echinochloa crusgalli; [1])
CCOC(=O)C(C)O/N=C/c1cc(-n2c(=O)n(C)c(=S)n(C)c2=O)c(F)cc1Br (stereo not drawn) [Compound 84]	5 (Level 5: growth control rate is above 85%)	4 (Level 4: growth control rate is greater than or equal to 60% and less than 85%)	4 (Level 4: growth control rate is greater than or equal to 60% and less than 85%)	5 (Level 5: growth control rate is above 85%)	5 (Level 5: growth control rate is above 85%)	5 (Level 5: growth control rate is above 85%)						
COC(=O)CCNC(=O)C(C)O/N=C/c1cc(-n2c(=O)cc(C(F)(F)F)n(C)c2=O)c(F)cc1Cl (stereo not drawn) [Compound 416]							5 (Level 5: growth control rate is above 85%)	4 (Level 4: growth control rate is greater than or equal to 60% and less than 85%)	5 (Level 5: growth control rate is above 85%)	5 (Level 5: growth control rate is above 85%)	5 (Level 5: growth control rate is above 85%)	5 (Level 5: growth control rate is above 85%)
COC(=O)C(O/N=C/c1cc(-n2c(=O)cc(C(F)(F)F)n(C)c2=O)c(F)cc1Cl)c1ccccc1 (stereo not drawn) [Compound 337]	5 (Level 5: growth control rate is above 85%)	5 (Level 5: growth control rate is above 85%)	5 (Level 5: growth control rate is above 85%)	5 (Level 5: growth control rate is above 85%)	5 (Level 5: growth control rate is above 85%)	5 (Level 5: growth control rate is above 85%)						
COCCOC(=O)[C@@H](C)O/N=C/c1cc(-n2c(=O)n(C)c(=S)n(C)c2=O)c(F)cc1Cl [14(R)]	5 (Level 5: growth control rate is above 85%)	4 (Level 4: growth control rate is greater than or equal to 60% and less than 85%)	5 (Level 5: growth control rate is above 85%)	5 (Level 5: growth control rate is above 85%)	5 (Level 5: growth control rate is above 85%)	5 (Level 5: growth control rate is above 85%)						
CC(O/N=C/c1cc(-n2c(=O)cc(C(F)(F)F)n(C)c2=O)c(F)cc1Cl)C(=O)OC/C=C/Cl (racemic) [Compound 225]	5 (Level 5: growth control rate is above 85%)	4 (Level 4: growth control rate is greater than or equal to 60% and less than 85%)	5 (Level 5: growth control rate is above 85%)	5 (Level 5: growth control rate is above 85%)	5 (Level 5: growth control rate is above 85%)	5 (Level 5: growth control rate is above 85%)						
